According to patent US5306712A, “Fungicidal silicon-containing compounds and their agrochemical and medicinal uses” (Sanyo Company, Limited, priority 1991, dated 1994):
Converted amounts (≈) assume the structure as drawn.

How the values were obtained:
[1] = system: Coriolus versicolor (Fungus D); assay: Wood-preservative Activity (Antidecay); details: paper disc, 30 μl of 300 ppm acetone solution, 25° C., 5 days
Description: (§4) A fungal disc of about 4 mm diameter was inoculated on an agar medium (2% by weight malt extract, 1% glucose, 0.3% peptone and 2% agar) in a petri dish of diameter 9 cm, by placing the disc on the center of the medium. Paper disc specimens were prepared by impregnating 30 μl of an acetone solution containing 300 ppm of the test compound into the disc (diameter 8 mm, thickness 0.7 mm) and then subjecting it to dry sterilization. The disc specimens were placed in a circle at about 1 cm distance from the fringe of the grown fungus, three days after the inoculation. The specimens were then maintained at 25° C. for 5 days, after which the antifungal activity was determined by visual observation of infection of the specimens by the fungus.
(§5) The procedure described in Experiment 7 was repeated, except that the fungi tested were Coriolus versicolor (Fungus D) and Tyromyces palustris (Fungus E), which are prescribed in JIS A-9201.

[2] = system: Tyromyces palustris (Fungus E); assay: Wood-preservative Activity (Antidecay); details: paper disc, 30 μl of 300 ppm acetone solution, 25° C., 5 days
Description: as §4, §5

[3] = system: Aspergillus niger (Fungus A); assay: Antifungal Activity (paper disc on agar); details: 30 μl of 300 ppm acetone solution, 25° C., 5 days
Description: (§6) A fungal disc of about 4 mm diameter was inoculated on an agar medium (2% by weight malt extract, 1% glucose, 0.3% peptone and 2% agar) in a petri dish of diameter 9 cm, by placing the disc on the center of the medium. Paper disc specimens were prepared by impregnating 30 μl of an acetone solution containing 300 ppm of the test compound into the disc (diameter 8 mm, thickness 0.7 mm) and then subjecting it to dry sterilization. The disc specimens were placed in a circle at about 1 cm distance from the fringe of the grown fungus, three days after the inoculation. The specimens were then maintained at 25° C. for 5 days, after which the antifungal activity was determined by visual observation of infection of the specimens by the fungus. The fungi tested were:
Aspergillus niger (Fungus A),

[4] = system: Gliocladium virens (Fungus B); assay: Antifungal Activity (paper disc on agar); details: 30 μl of 300 ppm acetone solution, 25° C., 5 days
Description: as §6
Gliocladium virens (Fungus B), and

[5] = system: Fusarium moliniforme (Fungus C); assay: Antifungal Activity (paper disc on agar); details: 30 μl of 300 ppm acetone solution, 25° C., 5 days
Description: as §6
Fusarium moliniforme (Fungus C).
The antifungal activity is indicated by the following ratings:

[6] = system: Candida Albicans Sc.; assay: Antifungal Test (MIC, Sabouraud's agar); format: cell-based; details: 48 h, C. albica, 27° C., 2 days
Description: (§1) (i) Preparation of the test solution: The sample to be tested was examined to determine a suitable solvent from those listed below and the method of dissolution, and then the sample was weighed (about 10 mg), dissolved in the selected solvent and diluted with sterilized distilled water to a concentration of 500 μg/ml. Samples of the resulting solution were then subjected to sequential dilution to half the previous concentration to prepare I2 samples in which the concentration of active compound is progressively halved.
(§2) (ii) Test procedure for antifungal activity: Using Nunklon (Registered trademark) 24.hole plates (manufactured by Nunk K. K.), 0.1 ml each of the diluted solutions described above was poured into a hole, 0.9 ml of Sabouraud's agar medium was added to each hole, giving a total of 1 ml in each hole, and mixed to prepare the plate medium.
1 Candida Albicans Sc. (C. albica)
(§3) These test strains were inoculated by means of a slant on Sabouraud's agar medium, cultured at 27° C. for 2 days for the yeast strains or for 7 to 14 days for the mold strains, and, kept intact, preserved at 5° C. (subcultured every 1 month). On the day of the test, in the case of the yeast medium, physiological saline to which had previously been added Tween 80 in an amount of 0.1% (w/v) was added to each medium to prepare 10^6 cells/ml suspensions; and, in the case of the mold medium, 4 ml each of the solution above was added to the surface of the agar slant, the surface was rubbed slightly with a stirrer or a platinum loop to suspend the spores, and then, by filtration through a funnel on which 2 sterilized gauzes were placed one upon another, 10^6 cells/ml suspensions were prepared. Using an Eppendorf pipette, 0.1 ml each of these suspension preparations was inoculated and cultivated. The culture was conducted at 27° C. for 2 days for the three strains of yeast, for 5 days for molds 4 , 5 and 6, and for 7 days for molds 7 and 8 to determine minimal inhibitory concentrations of the test samples.

[7] = system: Candida albicans 427; assay: Antifungal Test (MIC, Sabouraud's agar); format: cell-based; details: Candida albicans, 427, 48 h
[8] = system: Cryptococcus neoformans 58063; assay: Antifungal Test (MIC, Sabouraud's agar); format: cell-based; details: Cryptococcus neoformans, 58063, 48 h; C. neofor; 27° C., 2 days
Description: as §1, §2
3 Cryptococcus neoformans 58063 (C. neofor)
as §3

[9] = system: Mucor mucedo; assay: Antifungal Test (MIC, Sabouraud's agar); format: cell-based; details: 120 h
[10] = system: Aspergillus fumigatus; assay: Antifungal Test (MIC, Sabouraud's agar); format: cell-based; details: 120 h, A. fumiga, 27° C., 5 days
Description: as §1, §2
5 Aspergillus fumigatus (A. fumiga)
as §3

[11] = system: Microsporum gypseum; assay: Antifungal Test (MIC, Sabouraud's agar); format: cell-based; details: Nannizzia gypsea, 120 h
Description: as §1, §2
6 Microsporum gypseum (M. gypseu)
as §3

[12] = system: Trichophyton mentagrophytes Sc.; assay: Antifungal Test (MIC, Sabouraud's agar); format: cell-based; details: 168 h, T. mentag, 27° C., 7 days
Description: as §1, §2
7 Trichophyton mentagrophytes Sc. (T. mentag)
as §3

[13] = system: Trichophyton rubrum Sc.; assay: Antifungal Test (MIC, Sabouraud's agar); format: cell-based; details: 168 h

| Compound | wood-preservative (antidecay) activity, Fungus D [1] | wood-preservative (antidecay) activity, Fungus E [2] | antifungal activity, Fungus A [3] | antifungal activity, Fungus B [4] | antifungal activity, Fungus C [5] | MIC [6] | MIC [7] | MIC [8] | MIC [9] | MIC [10] | MIC [11] | MIC [12] | MIC [13] |
| --- | --- | --- | --- | --- | --- | --- | --- | --- | --- | --- | --- | --- | --- |
| C[Si](C)(C)CC(O)(Cn1ccnc1)c1ccc(Cl)cc1Cl (stereo not shown) [Compound 1-49, 2-(2,4-Dichlorophenyl)-1-(1H-1,3-imidazol-1-yl)-3-trimethylsilyl-2-propanol] | + | - | - | - | - |  |  |  |  |  |  |  |  |
| CC[Si](C)(C)CC(O)(Cn1cncn1)c1ccc(F)cc1 (stereo not shown) [Compound 1-70, 3-Dimethylethylsilyl-2-(4-fluorophenyl)-1-(1H-1,2,4-triazol-1-yl)-2-propanol] | + | + | - | + | + |  |  |  |  |  |  |  |  |
| C[Si](C)(C)CC(O)(Cn1cncn1)c1ccc(C(F)(F)F)cc1 (stereo not shown) [Compound 1-6, 1-(1H-1,2,4-Triazol-1-yl)-2-(4-trifluoromethylphenyl)-3-trimethylsilyl-2-propanol] | + | + | + | - | + |  |  |  |  |  |  |  |  |
| C[Si](C)(CC(O)(Cn1cncn1)c1ccc(F)cc1)c1ccc(Cl)cc1 (stereo not shown) [Compound 1-69, 3-[(4-Chlorophenyl)dimethylsilyl]-2-(4-fluorophenyl)-1-(1H-1,2,4-triazol-1-yl)-2-propanol] | + | - | - | - | + |  |  |  |  |  |  |  |  |
| Cc1ccc(C(O)(Cn2cncn2)C[Si](C)(C)C)cc1 (stereo not shown) [Compound 1-5, 2-(4-Methylphenyl)-1-(1H-1,2,4-triazol-1-yl)-3-trimethylsilyl-2-propanol] | + | + | + | + | + |  |  |  |  |  |  |  |  |
| C[Si](C)(C)CC(O)(Cn1cncn1)c1ccc(Cl)cc1Cl (stereo not shown) [Compound 1-11, 2-(2,4-Dichlorophenyl)-1-(1H-1,2,4-triazol-1-yl)-3-trimethysilyl-2-propanol] | + | + | + | + | + |  |  |  |  |  |  |  |  |
| C[Si](C)(C)CC(O)(Cn1cncn1)c1ccc(F)cc1 (stereo not shown) [Compound 1-78, Adduct of 2-(4-fluorophenyl)-1-(1H1,2,4-triazol-1-yl)-3-trimethylsilyl-2-propanol with saccharin] | + | + | - | + | + |  |  |  |  |  |  |  |  |
| C[Si](C)(C)CC(O)(Cn1ccnc1)c1ccc(F)cc1F (stereo not shown) [Compound 1-50, 2-(2,4-Difluorophenyl)-1-(1H-1,3-imidazol-1-yl)-3-trimethylsilyl-2-propanol] | + | - | - | - | + |  |  |  |  |  |  |  |  |
| C[Si](C)(C)CC(O)(Cn1cncn1)c1ccc(F)cc1 (stereo not shown) [Compound 1-3, 2-(4-Fluorophenyl)-1-(1H-1,2,4-triazol-1-yl)-3-trimethylsilyl-2-propanol] |  |  | + |  |  | > 50 µg/mL | > 50 µg/mL | > 50 µg/mL | > 50 µg/mL | > 50 µg/mL | > 50 µg/mL | 25 µg/mL (≈ 85.2 µM) | 25 µg/mL (≈ 85.2 µM) |
| C[Si](C)(C)CC(O)(Cn1cncn1)c1ccc(Br)cc1 (stereo not shown) [Compound 1-4, 2-(4-Bromophenyl)-1-(1H-1,2,4-triazol-1-yl)-3-trimethylsilyl-2-propanol] | + | + | + | + | + |  |  |  |  |  |  |  |  |
| C[Si](C)(C)CC(O)(Cn1cncn1)c1ccccc1Cl (stereo not shown) [Compound 1-16, 2-(2-Chlorophenyl)-1-(1H-1,2,4-triazol-1-yl)-3-trimethylsilyl-2-propanol] | + | + | + | + | + |  |  |  |  |  |  |  |  |
| C[Si](C)(C)CC(O)(Cn1cncn1)c1ccccc1 (stereo not shown) [Compound 1-1, 2-Phenyl-1-(1H-1,2,4-triazol-1-yl)-3-trimethylsilyl-2-propanol] | + | + | + | - | + |  |  |  |  |  |  |  |  |
| C[Si](C)(C)CC(O)(Cn1cncn1)c1ccc(Cl)c(Cl)c1 (stereo not shown) [Compound 1-29, 2-(3,4-Dichlorophenyl)-1-(1H-1,2,4-triazol-1-yl)-3-trimethylsilyl-2-propanol] | - | - | - | - | + |  |  |  |  |  |  |  |  |
| C[Si](C)(C)CC(O)(Cn1cncn1)c1ccc(Cl)c(Cl)c1Cl (stereo not shown) [Compound 1-64, 1-(1H-1,2,4-Triazol-1-yl)-2-(2,3,4-trichlorophenyl)-3-trimethylsilyl-2-propanol] | - | + | - | - | - |  |  |  |  |  |  |  |  |
| C[Si](C)(C)CC(O)(Cn1cncn1)c1ccc(Cl)cc1F (stereo not shown) [Compound 1-14, 2-(4-Chloro-2-fluorophenyl)-1-(1H-1,2,4-triazol-1-yl)-3-trimethylsilyl-2-propanol] | + | + | + | + | + |  |  |  |  |  |  |  |  |
| C[Si](C)(C)CC(O)(Cn1cncn1)c1ccc(Cl)cc1 (stereo not shown) [Compound 1-83, Adduct of 2-(4-chlorophenyl)-1-(1H-1,2,4-triazol-1-yl)-3-trimethylsilyl-2-propanol with saccharin] | + | + | - | + | + |  |  |  |  |  |  |  |  |
| C[Si](C)(C)CC(O)(Cn1cncn1)c1ccccc1F (stereo not shown) [Compound 1-17, 2-(2-Fluorophenyl)-1-(1H-1,2,4-triazol-1-yl)-3-trimethylsilyl-2-propanol] | + | + | + | + | + |  |  |  |  |  |  |  |  |
| C[Si](C)(C)CC(O)(Cn1cncn1)c1cc(Cl)c(Cl)cc1Cl (stereo not shown) [Compound 1-65, 1-(1H-1,2,4-Triazol-1-yl)-2-(2,4,5-trichlorophenyl)-3-trimethylsilyl-2-propanol] | - | - | - | - | + |  |  |  |  |  |  |  |  |
